Consider ten molecules from patent publication US10081629B2, “Amide derivatives and pharmaceutically acceptable salts thereof, preparation method thereof and medicinal application thereof” (Shanghai Hengrui Pharmaceutical Co., Ltd., priority 2014, dated 2018).

In data set [1] the target is human mPGES1 (Homo sapiens (Human), UniProt O14684). Nature of the data set: Inhibition activity for human mPGES1 (enzyme assay, PGE2 HTRF). Type of data set: biochemical. Particulars: membrane protein from HEK-293 F transfected with human mPGES1. On the procedure:
The method described here is used for determining the inhibition activity of the present compounds for human mPGES1.
• 1. PGE2 Assay kit (Cisbio, #62P2APEB) • 2. Prostaglandin H2 (Sigma, #P7867-1MG) • 3. FlexStation3 microplate reader. II. Experimental Procedure • 1. Obtaining the membrane proteins of mPGES1 enzyme
The cell density of HEK-293 F was grown to 6×10^5 per milliliter and was transferred with the plasmid containing human mPGES1 gene by transfection reagent PEI the next day. The cells were continuously cultured for 72 hours at 37° C. with shaking. After centrifuging at 1100 g for 5 minutes, the cells were harvested. After ultrasonication in an ice bath and centrifugation at 5000 g for 10 minutes, the supernatant was obtained. The supernatant was centrifuged at 100000 g for 1 hour to obtain a precipitate. The precipitate was resuspended with storage buffer containing 10% glycerinum, subpackaged and frozen rapidly under liquid nitrogen, and stored at −80° C. • 2. mPGES1 enzyme assay
mPGES1 was diluted with assay buffer and added into plate at 49 μL/well supplemented with 1 μL of compound (the final concentration of each compound at seven gradient concentrations was 10000 nM, 1000 nM, 100 nM, 10 nM, 1 nM, 0.1 nM and 0.01 nM). […] Then, each well was added with 53.8 μL of 6 mg/mL SnCl2 to quench the reaction. The sample was diluted with dilute buffer at 1:400. 10 μl of diluted sample, 5 μL PGE2-d2 and 5 μL anti-PGE2 Cryptate were added to a black 384-well plate, and incubated at 4° C. overnight. HTRF was determined using Flexstation, and the IC50 of the compounds was obtained by data processing software.
The inhibition activity of the present compounds on mPGES1 was tested by the assay described above.
On the technique in general: TR-FRET usually uses a lanthanide donor and a delayed reading to cut background.

Data set [2] deals with secretion of PGE2 by A549 cells stimulated with IL-1β. Nature of the data set: Inhibition of the secretion of PGE2 by A549 cells stimulated with IL-1β. Format: cell-based. Particulars: Homo sapiens, IL-1β 0.2 ng/mL. The text has this: The method described here was used for determining the inhibition activity of the present compounds on the secretion of PGE2 by A549 cells stimulated with IL-1β.
• 1. PGE2 Assay kit (Cisbio, #62P2APEB) • 2. IL-1β (Peprotech, # AF-200-01B) • 3. Cell line: A549 (ATCC: CCL-185) • 4. FlexStation3 microplate reader. II. Experimental Procedure
On the first day, A549 cells were inoculated in a 96-well plate at 40000/well. On the second day, the culture medium in the 96-well plate was removed and then added with 90 μL of compound diluted with culture medium (the concentration of each compound at seven gradient concentrations was 11111 nM, […], 1.11 nM, 0.11 nM and 0.011 nM). The cells were incubated for 30 minutes at 37° C. in an incubator, and then added with IL-1β to a final concentration of 0.2 ng/mL. Then, the cells were incubated for another 24 hours at 37° C. On the third day, 10 μl of supernatant, 5 μL of PGE2-d2 and 5 μL of anti-PGE2 Cryptate were added into a black 384-well plate, and then incubated at 4° C. overnight. HTRF was determined using Flexstation, and the IC50 of the compounds was obtained by data processing software.
The inhibition activity of the present compounds on the secretion of PGE2 by A549 cells stimulated with IL-1β was determined by the assay described above.

A short description of data set [3]: Pharmacokinetics assay in rats. Format: in vivo. Particulars: both sexes, Sprague-Dawley, rat, plasma, po, SD rats, intragastric, 5 mg/kg; for Vd/F: read-out: Apparent Distribution Volume Vz/F; for AUC: read-out: Area Under Curve AUC; for CL/F: read-out: Clearance CLz/F; for half-life: read-out: Half-Life T½ (converted); for MRT: read-out: Mean Residence Time MRT; for Cmax: read-out: Plasma Conc. Cmax. As to the method: Rats were used as test animals. The drug concentration in plasma at different time points was determined by LC/MS/MS after administration of the compounds of Example 8, Example 11, Example 14, Example 17, Example 20, Example 27, Example 33, Example 35, Example 36, Example 37 and Example 48 to rats. The pharmacokinetic behavior of the present compounds was studied and evaluated in rats.
Forty four (44) healthy adult Sprague-Dawley (SD) rats, half male and half female, which were purchased from SINO-BRITSH SIPPR/BK LAB. ANIMAL LTD., CO, with Certificate No.: SCXK (Shanghai) 2008-0016, were divided into 11 groups, with 4 rats in each group.
The appropriate amount of test compounds was weighed, and mixed with 25 μL Tween 80 and Labrasol to prepare a 0.6 mg/mL suspension by ultrasonication.
After an overnight fast, 44 SD rats, half male and half female, were divided into 11 groups, and administered intragastrically at a dose of 5.0 mg/kg and an administration volume of 10 mL/kg.
Blood (0.1 mL) was sampled from the orbital sinus before administration and 0.5 h, 1.0 h, 2.0 h, 4.0 h, 6.0 h, 8.0 h, 11.0 h, and 24.0 h after administration. The samples were stored in EDTA anticoagulation tubes, and centrifuged for 5 minutes at 3,500 rpm to separate the blood plasma. The plasma samples were stored at −20° C. The rats were fed 2 hours after administration.
The plasma concentration of the test compounds in rat after intragastric administration was determined by LC-MS/MS. The linearity of the method is 5.00-2000 ng/mL and 1.00-2000 ng/ml, and the minimum of quantification is 5.00 ng/mL and 1.00 ng/mL.
Plasma samples were analyzed after pretreatment by protein precipitation.

human mPGES1, sequence (O14684 whole entry): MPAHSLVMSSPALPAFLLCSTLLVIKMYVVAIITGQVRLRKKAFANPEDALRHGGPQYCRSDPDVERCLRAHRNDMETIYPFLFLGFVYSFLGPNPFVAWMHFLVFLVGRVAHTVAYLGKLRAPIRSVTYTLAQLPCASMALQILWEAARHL

What is called IC50 is the concentration that gives 50% inhibition. For orientation: AUC means the area under the concentration-time curve, a measure of exposure. Broadly, the half-life is the time in which the quantity being followed falls by half. For orientation: MRT means the average time that molecules of a dose stay in the body. One may read the Cmax as the maximum level reached in the sampled fluid or tissue. As for `CCn1c(-c2ccc(F)cc2)cc2cc(NC(=O)c3cc(CNC(=O)C(C)(C)C)ccc3Cl)ccc21` [Example 8, 2-Chloro-N-(1-ethyl-2-(4-fluorophenyl)-1H-indol-5-yl)5-((2,2-dimethylpropanoylamino)methyl)-benzamide], the 50% inhibitory concentration (IC50) in data set [1] is 3.88 nM. This molecule yielded an IC50 in data set [2] (A549, 24 h) of 19.1 nM. Moreover, in data set [3], the Vd/F was 10.5 ± 4.66 L/kg, the exposure (AUC) came to 2900 ± 1340 ng·h/mL, the CL/F worked out at 32.7 ± 13.1 mL/min/kg and the half-life was 4.69 ± 3.74 h. Also, in data set [3], the MRT was 8.21 ± 4.88 h and the Cmax came out at 346 ± 155 ng/mL.

`Cn1c(-c2ccc(F)cc2)cc2cc(NC(=O)c3cc(CNC(=O)C(C)(C)C)ccc3Cl)ccc21` [Example 11, 2-chloro-N-(2-(4-fluorophenyl)-1-methyl-1H-indol-5-yl)-5-((2,2-dimethylpropanoylamino)methyl)benzamide] showed an IC50 in data set [1] of 5.14 nM. In data set [2] (A549, 24 hours), this molecule registered an IC50 of 16.3 nM. In data set [3], the Vd/F is 5.83 ± 1.14 L/kg, the AUC came to 7230 ± 5320 ng·h/mL, the CL/F is 19.2 ± 14.1 mL/min/kg and the half-life is 5.27 ± 3.25 h. In data set [3], the MRT was 10.4 ± 5.1 h and the maximum concentration (Cmax) was 572 ± 167 ng/mL.

With `Cn1c(-c2ccc(Cl)cc2)cc2cc(NC(=O)c3cc(CNC(=O)C(C)(C)F)cnc3C(F)F)ccc21` [Example 14, N-(2-(4-Chlorophenyl)-1-methyl-1H-indol-5-yl)-2-(difluoromethyl)-5-(((2-fluoro-2-methyl-propanoyl)amino)methyl)nicotinamide], half-maximal inhibition in data set [1] (IC50) was put at 4.59 nM. In data set [2] (A549, 24 h), this molecule had an IC50 of 20.5 nM. In data set [3], the Vd/F came out at 17.9 ± 3.12 L/kg, the AUC was 1790 ± 984 ng·h/mL, the CL/F is 56.7 ± 25.4 mL/min/kg and the half-life was 4.15 ± 1.59 h. Moreover, in data set [3], the MRT is 9.25 ± 2.24 h and the Cmax worked out at 150 ± 56 ng/mL.

In data set [1], `CCn1c(-c2ccc(C(F)(F)F)cc2)cc2cc(NC(=O)c3cc(CNC(=O)C(C)(C)F)cnc3C(F)F)ccc21` [Example 17, 2-(Difluoromethyl)-N-(1-ethyl-2-(4-(trifluoromethyl)phenyl)-1H-indol-5-yl)-5-(((2-fluoro-2-methyl-propanoyl)amino)methyl)nicotinamide] displayed a half-inhibitory concentration (IC50) of 2.68 nM. Moreover, the IC50 in data set [2] (A549, 24 hours) was 12.1 nM. Moreover, in data set [3], the Vd/F came out at 20.2 ± 2.6 L/kg, the area under the curve (AUC) was determined as 2000 ± 650 ng·h/mL, the CL/F was 45.3 ± 15.3 mL/min/kg and the half-life is 5.44 ± 1.23 h. Also, in data set [3], the MRT was 10.4 ± 1.9 h and the Cmax is 155 ± 26 ng/mL.

In turn, `CCn1c(-c2cccc(Cl)c2)cc2cc(NC(=O)c3cc(CNC(=O)C(C)(C)F)cnc3C(F)F)ccc21` [Example 20, N-(2-(3-Chlorophenyl)-1-ethyl-1H-indol-5-yl)-2-(difluoromethyl)-5-(((2-fluoro-2-methyl-propanoyl)amino)methyl)nicotinamide] came in with a half-inhibitory concentration (IC50) in data set [1] of 3.54 nM. The molecule further displayed an IC50 in data set [2] (A549, 24 hours) of 12.6 nM. In data set [3], the Vd/F was found to be 5.41 ± 1.81 L/kg, the AUC is 8240 ± 2280 ng·h/mL, the CL/F is 10.7 ± 2.7 mL/min/kg and the half-life is 5.94 ± 2 h. Further, in data set [3], the MRT was 11.1 ± 3 h and the maximum concentration (Cmax) is 681 ± 195 ng/mL.

Regarding `COCCn1c(-c2ccc(C(F)(F)F)cc2)cc2cc(NC(=O)c3cc(CNC(=O)C(C)(C)F)cnc3C(F)F)ccc21` [Example 27, 2-(Difluoromethyl)-5-(((2-fluoro-2-methyl-propanoyl)amino)methyl)-N-(1-(2-methoxyethyl)-2-(4-(trifluoromethyl)phenyl)-1H-indol-5-yl)nicotinamide], the IC50 in data set [1] came to 4.77 nM. Further, the IC50 in data set [2] (A549, 24 hours) stood at 13.4 nM. Besides, in data set [3], the Vd/F turned out to be 15.1 ± 1.53 L/kg, the exposure (AUC) was found to be 1180 ± 247 ng·h/mL, the CL/F was 73.3 ± 15.3 mL/min/kg and the half-life was 2.46 ± 0.59 h. For the same molecule, in data set [3], the mean residence time MRT is 5.32 ± 1.03 h and the Cmax turned out to be 193 ± 23 ng/mL.

In turn, `Cn1c(-c2cccc(Cl)c2)cc2cc(NC(=O)c3cc(CNC(=O)C(C)(C)F)cnc3C(F)F)ccc21` [Example 33, N-(2-(3-Chlorophenyl)-1-methyl-1H-indol-5-yl)-2-(difluoromethyl)-5-(((2-fluoro-2-methyl-propanoyl)amino)methyl)nicotinamide] returned an IC50 in data set [1] of 5.33 nM. Besides, half-maximal inhibition in data set [2] (A549, 24 hours) (IC50) was put at 12.8 nM. Further, in data set [3], the Vd/F stood at 4.82 ± 0.961 L/kg, the AUC is 5720 ± 1210 ng·h/mL, the MRT is 7.6 ± 1.09 h and the Cmax was determined as 557 ± 80 ng/mL.

For `Cn1c(-c2cccc(Cl)c2)cc2nc(NC(=O)c3cc(CNC(=O)C(C)(C)F)cnc3C(F)F)ccc21` [Example 35, N-(2-(3-Chlorophenyl)-1-methyl-1H-pyrrolo[3,2-b]pyridin-5-yl)-2-(difluoromethyl)-5-(((2-fluoro-2-methyl-propanoyl)amino)methyl)nicotinamide], the IC50 in data set [1] came to 4.07 nM. The IC50 in data set [2] (A549, 24 hours) came out at 31.6 nM. In data set [3], the Vd/F came to 1.85 ± 0.576 L/kg, the AUC came out at 37400 ± 36700 ng·h/mL, the CL/F turned out to be 4.69 ± 3.72 mL/min/kg and the half-life was 11.3 ± 14.5 h. In data set [3], the MRT is 18.8 ± 20.6 h and the Cmax was 1510 ± 517 ng/mL.

Take `Cn1c(-c2cccc(Cl)c2)cc2cc(NC(=O)c3cc(CNC(=O)C(C)(C)F)cnc3C(F)F)ncc21` [Example 36, N-(2-(3-Chlorophenyl)-1-methyl-1H-pyrrolo[2,3-c]pyridin-5-yl)-2-(difluoromethyl)-5-(((2-fluoro-2-methyl-propanoyl)amino)methyl)nicotinamide]: in data set [1], it took 4.19 nM to reach half-maximal inhibition (IC50). This molecule returned a half-inhibitory concentration (IC50) in data set [2] (A549, 24 hours) of 13.2 nM. Moreover, in data set [3], the Vd/F is 7.22 ± 1.34 L/kg, the AUC amounted to 3540 ± 1970 ng·h/mL, the CL/F was found to be 30.4 ± 17 mL/min/kg and the half-life was 3.69 ± 2.4 h. In addition, in data set [3], the MRT was determined as 6.56 ± 3.01 h and the Cmax was 459 ± 157 ng/mL.

In data set [1], `CCn1c(-c2cccc(Cl)c2)cc2nc(NC(=O)c3cc(CNC(=O)C(C)(C)F)cnc3C(F)F)ccc21` [Example 37, N-(2-(3-Chlorophenyl)-1-ethyl-1H-pyrrolo[3,2-b]pyridin-5-yl)-2-(difluoromethyl)-5-(((2-fluoro-2-methyl-propanoyl)amino)methyl)nicotinamide] came in with an IC50 of 6.46 nM. The same molecule gave an IC50 in data set [2] (A549, 24 hours) of 22.4 nM. Besides, in data set [3], the Vd/F is 1.39 ± 0.17 L/kg, the AUC amounted to 23200 ± 14200 ng·h/mL, the CL/F worked out at 5.44 ± 4.31 mL/min/kg and the half-life is 4.49 ± 2.93 h. Moreover, in data set [3], the MRT amounted to 7.34 ± 3.76 h and the maximum concentration (Cmax) stood at 2350 ± 676 ng/mL.
